From PMC12053792 (Journal of Peptide Science, 2025)
Entries after “also recorded” stand apart in the source; their conditions may differ.

Experiments:
[1] = SAXS and cryo‐TEM (fibril formation); format: physicochemical; details: 1 wt% aqueous solution
Method: Interrogation of the structure of peptide‐adjuvant constructs 2 and 3 was performed using CD spectroscopy as well as modelling studies (PEP‐FOLD). […] Fibril formation by α‐helical peptides is typically observed due to lateral association of coiled‐coils. Here, this may play a role, although lateral interaction of the hydrophobic alkyl chains is likely to be the essential driver for the fibril formation. The fibril core radius 14.0–18.5 Å from SAXS (Table S1) is consistent with the length of an extended Pam lipid chain. […]
windows, with 0.01 mm path length. Spectra were measured using a 0.5 nm step, 1 nm bandwidth and 1 s collection time per step, and a range of 180 to 280 nm. […]
The residue of the calculation was chosen to oscillate around the average, to avoid artifacts in the smoothed curve. CD data, measured in mdeg, was normalized to molar ellipticity using the molar concentration of the sample and the cell path length.
Cryogenic-TEM (Cryo-TEM) Imaging was carried out using a field emission cryo-electron microscope (JEOL JEM-3200FSC), operating at 200 kV. […] The micrographs were recorded using a Gatan Ultrascan 4000 CCD camera. […] Vitrified specimens were prepared using an automated FEI Vitrobot device using Quantifoil 3.5/1 holey carbon copper 200 mesh grids with a hole size of 3.5 µm and […]. […]

[2] = system: IFNγ‐secreting T‐cells; experiment: In vivo immunisation, IFNγ ELISpot on splenocytes, HHDII/DR1 mice; set-up: species or system HHDII/DR1 (HLA‐A2 transgenic) mice
Method: Animal experiments were carried out with ethical approval from University of Nottingham ethical review board and under a Home Office approved project license (PP2706800). Mice were dosed with 10 nmol of material in 50 μL at Days 1, 8 and 15 (n = 3). IFNϒ ELISpot assays on splenocytes were conducted on termination at Day 21. General methods for the ELISpot can be found in the Supporting Information. Preparation of media and buffers and steps performed on Days 1 and 2 post‐termination; the ELISpot assays were performed using a laminar flow cabinet and aseptic techniques to ensure the sterility of media, reagents and plates at stages before development of the ELISpot. Development of the ELISpot on Day 4 posttermination was performed on the laboratory bench.
In Vivo Evaluation (ELISpot Assay)
Animal experiments were carried out with ethical approval from University of Nottingham ethical review boards and under a Home Office approved project license (PP2706800). HLA-HHDII/DR1 (HLA-A2.1+/+ HLADR1+/+, Pasteur Institute) transgenic mice knocked out for murine MHC-I and II and expressing chimeric HLA-A2 (HHDII) and human HLA-DR1 or Balb/c mice (Charles River) aged 6-12 weeks were used. Mice were vaccinated with 10 ηmol of each immunogen at each timepoint. Doses were delivered subcutaneously (s.c.) in 50 µl volume on days 1, 8 and 15. No anaesthesia was used for injections. Responses were screened on day 21 after euthanasia by cervical dislocation. Preparation of media and buffers and steps performed on days 1 and 2 of the ELISpot assay were performed using a laminar flow cabinet and aseptic techniques to ensure the sterility of media, reagents and plates at stages before development of the ELISpot. Development of the ELISpot on day 4 can be performed on the […]
The following tables summarise the details of the vaccine candidates and vaccination procedure including (dose time points):
Table S5. Summary of the injection schedule (including dose concentration and number) for Pam2Cys-SK4-NY-ESO-1157-165 (2) candidate using HHDII/DR1 Tg mice. […]

## 3: vaccine‐adjuvant construct Pam2Cys‐SK4‐NY‐ESO‐1_157‐165 [compound 3]
[1]
  Fibril formation: also formed fibrils; also recorded: indicate the formation of fibrils
[2]; healthy HLA‐A2 transgenic (HHDII/DR1) mice, 10 nmol in 50 μL s.c., days 1, 8, 15, n = 3, day 21, versus media‐only negative control
  Immune response (in words): specific but weak responses; also recorded: weakly immunogenic; also recorded: shows activity as a self‐adjuvanting vaccine candidate
[2]; restimulated with NY‐ESO‐1_87‐111 and NY‐ESO‐1_119‐143
  ANOVA significance (in words): not significant
[2]; restimulated with NY‐ESO‐1_157‐165
  ANOVA significance (in words): significant effect
